# Measurements as given in paper PMC10574767, “Extractives from Artemisia afra with Anti-Bacterial and Anti-Fungal Properties” (Plants, 2023).
# What was measured:
# Bacillus subtilis = system: Bacillus subtilis; parameters: method as in ref 36 = [36]; 36. Koay Y.C. Wong K.C. Hasnah O. Ibrahim E.M.S. Mohammad Z.A. Chemical constituents and biological activities of Strobilanthes crispus L. Rec. Nat. Prod. 2013 7 59 64; conditions: cited from earlier work
# T. rubrum = system: T. rubrum; parameters: method as in PMID 19844829, PMID 35453556; conditions: cited from earlier work
# [1] = system: Aspergillus niger, Aspergillus flavus, Rhizoctonia phaseoli, and Penicillium chrysogenum; parameters: method as in ref 38 = [38]; 38. ur Rahman U. Durrani S. Ubaidullah S.A. ur Rahman S. Anti-pyretic activity of taraxerol acetate KJMS 2016 9 165; conditions: 1 mg/disc; cited from earlier work
# T. mentagrophytes = system: T. mentagrophytes; parameters: method as in PMID 19844829, PMID 35453556; conditions: cited from earlier work
# MRC-5 = system: MRC-5; parameters: method as in PMID 35453556, PMID 21294076; conditions: cited from earlier work
# Staphylococcus aureus = system: Staphylococcus aureus; parameters: method as in ref 36 = [36]; 36. Koay Y.C. Wong K.C. Hasnah O. Ibrahim E.M.S. Mohammad Z.A. Chemical constituents and biological activities of Strobilanthes crispus L. Rec. Nat. Prod. 2013 7 59 64; conditions: cited from earlier work
# [2] = system: one fungal and five bacterial strains; assay: Serial dilution microplate MIC, whole panel; type: cell-based; conditions: isolated compounds, all tested strains; highest concentration 250 µg/mL; read-out: MIC against all tested microorganisms
# Procedure: (§1) The MIC value of the plant extracts and isolated compounds against one fungal and five bacterial strains (Salmonella Typhimurium ATCC 39183, Escherichia coli ATCC 25922, Pseudomonas aeruginosa ATCC 27853, Staphylococcus aureus ATCC 29213, Enterococcus faecalis ATCC 29212, and fungi culture, Candida albicans ATCC 10231) was assessed in triplicate using the serial dilution microplate method; acetone and DMSO were used as solvents. Bacterial cultures were grown in Mueller Hinton broth (Sigma Aldrich, St. Louis, MO, USA) overnight and adjusted to McFarland standard 1 (1 × 10^8 CFU/mL). Then, 100 µL of samples were transferred into the first well of a sterile 96-well microtiter plate, which contained 100 µL of water and a 1:1 serial dilution with sterilized distilled water was carried out. In each well, 100 µL of appropriately adjusted fungal or bacterial cultures were added, and the bacteria were subjected to final concentrations of 250–3.9 μg/mL for pure compounds and 2.5–0.02 mg/mL for crude extracts. Amphotericin-B and Gentamicin (Virbac, Carros, France) served as positive controls for fungi and bacteria, respectively. For sterility, water served as control, while acetone served as a negative control. The microplates were then incubated for 24 h at 37 °C. Following incubation, 40 µL of 0.2 mg/mL p-iodonitrotetrazolium violet (INT, Sigma Aldrich) dissolved in water (hot) was added to the wells before being incubated at 37 °C for another 2 h. In the case of fungi, the INT was added before incubation. The MIC was measured visually as the lowest concentration of the compounds/extracts that inhibited proliferation.
# Candida albicans = system: Candida albicans; parameters: method as in PMID 19844829, PMID 35453556; conditions: cited from earlier work
# [3] = system: A431 squamous carcinoma cell line; parameters: method as in PMID 35453556, PMID 21294076; conditions: cited from earlier work
# Salmonella Typhimurium = system: Salmonella Typhimurium; parameters: method as in ref 36 = [36]; 36. Koay Y.C. Wong K.C. Hasnah O. Ibrahim E.M.S. Mohammad Z.A. Chemical constituents and biological activities of Strobilanthes crispus L. Rec. Nat. Prod. 2013 7 59 64; conditions: cited from earlier work
# [4] = system: Candida albicans ATCC 10231; assay: Serial dilution microplate MIC (fungi); type: cell-based; conditions: Table 2
# Procedure: as §1
# in vitro = conditions: monkey, LC50
# Procedure: Cytotoxicity of compounds and extracts was tested against mammalian cells using the MTT assay. MCF-7 cancer cells were grown in a 5% CO2 incubator in Dulbecco’s Modified Eagle’s Medium (DMEM, Highveld Biological, Johannesburg, South Africa) supplemented with 10% fetal calf serum (Adcock-Ingram, Johannesburg, South Africa) and 1% penicillin-streptomycin (10,000 U/mL and 10 mg/mL streptomycin, Sigma Aldrich). In a 5% CO2 incubator, Vero cells were grown in a minimal essential medium (MEM, Highveld Biological, South Africa) supplemented with 5% fetal calf serum (Adcock-Ingram) and 0.1% gentamicin (Virbac). Cell suspensions were obtained from 70–80% confluent monolayer cultures and were plated in 96-well cell culture plates at a density of 1 × 10^4. Plates were incubated in a 5% CO2 incubator for 24 h at 37 °C. The cells were exposed to the extracts or compounds dissolved in the media at different concentrations for 48 h. Positive and negative controls were doxorubicin (Pfizer, New York, NYC, USA) and acetone or DMSO, respectively. After that, the wells were rinsed with phosphate-buffered saline (PBS, Sigma) and 200 µL of fresh medium was poured into the wells. Thirty microlitres (5 mg/mL) of MTT (Sigma) dissolved in PBS was added to each well, and the plates were incubated at 37 °C for 4 h. The medium from the wells was removed, rinsed, and 50 µL of 100% DMSO was added to the wells. At a wavelength of 570 nm, absorbance was measured using a microplate reader (BioTek Synergy, Beijing, China). Each sample concentration was tested in quadruplicate in two repeats (n = 8), and the concentration causing 50% inhibition of cell viability (LC50) was calculated. Selectivity index (SI) values for the extracts/compounds were obtained by dividing cytotoxicity LC50 values of normal (Vero) cells by those of the cancer cells.
# [5] = system: Staphylococcus aureus, Bacillus thuringiensis, Escherichia coli, Enterobacter cloacae, and Klebsiella pneumoniae; parameters: method as in PMID 12120818; conditions: 1 mg of compound; cited from earlier work
# C. albicans = system: C. albicans; parameters: method as in ref 35 = [35]; 35. Naika H.R. Krishna V. Harish B.G. Khadeer Ahamed B.M. Mahadevan K.M. Antimicrobial Activity of Bioactive Constituents Isolated from the Leaves of Naravelia zeylanica (L.) DC Int. J. Res. Pharm. Bi; conditions: cited from earlier work
# MCF-7 = system: MCF-7; parameters: method as in PMID 35453556, PMID 21294076; conditions: cited from earlier work
smiles,measurement,setting,value
"CC1(C)CC[C@]2(C)CC=C3[C@]4(C)CC[C@H]5C(C)(C)[C@@H](O)CC[C@]5(C)[C@H]4CC[C@@]3(C)[C@@H]2C1 [Compound 3β-Taraxerol, 3β-taraxerol]",MIC Bacillus subtilis,Bacillus subtilis,15.6 µg/mL
same,MIC T. rubrum,T. rubrum,12.5 µg/mL
same,Anti-fungal activity against four fungi,[1],weak anti-fungal activities
same,MIC T. mentagrophytes,T. mentagrophytes,12.5 µg/mL
same,Cytotoxicity MRC-5,MRC-5,inactive
same,MIC Staphylococcus aureus,Staphylococcus aureus,15.6 µg/mL
same,MIC,[2],> 250 µg/mL
same,MIC Candida albicans,Candida albicans,25 µg/mL
same,Cytotoxicity A431,[3],2.65 µg/mL
same,MIC Salmonella Typhimurium,Salmonella Typhimurium,62.5 µg/mL
same,MIC,"[4]; Candida albicans, ATCC10231, isolated compounds, read-out: Minimum inhibitory concentration (MIC) C. albicans",250 µg/mL
same,Selectivity index C. albicans,"[4]; in brackets, Vero LC50 vs MIC",> 0.8
same,CC50 at 48 h,in vitro,> 200 µg/mL
same,Antimicrobial activity against two Gram-positive and three Gram-negative bacteria,[5],moderate antimicrobial activity
same,Activity against C. albicans,C. albicans,no activity
same,Cytotoxicity MCF-7,MCF-7,inactive
